The subject of data set [1] is Streptococcus pyogenes SSI-9. The data set is described as follows: Antibacterial activity assay of bead-derived peptides (three concentrations). The data set is classed as cell-based. On the set-up: key: +++: inhibition by the 640-fold diluted peptide solution; ++: inhibition by the 160-fold diluted solution; +: inhibition by the 40-fold diluted solution; -: no inhibition. The note with it: S. pyogenes, bead-derived peptide solution, three concentrations. The gist of the method:
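Undiluted, 4-fold and 16-fold DMSO-diluted peptide stocks; S. pyogenes SSI-9, 2 × 10^5 CFU, cation-adjusted MHB (50 mg/L Ca2+, 25 mg/L Mg2+) + 5% laked horse blood; 37 °C, 18 h; readout = cell pellet visible or not.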

For data set [2] the following is noted: cell viability/%. The gist of the method:
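P388 cells at 1 × 10^4 cells/mL (final) were exposed to library peptides (stocks diluted 250-fold in RPMI1640/10% FBS) for 92 h at 37 °C, 5% CO2. Viable cells were counted by WST-1/1-methoxy PMS (4 h), absorbance 415 nm, and expressed as cell viability (%).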

Data set [3] in a line: H+/Na+ transport assay of bead-derived peptides (one-point).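 Note: relative to parent gramicidin A activity set to 1.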 The data set is classed as biochemical. Also noted: key: relative activity; mean of two control wells = 1.00. The following applies: bead-derived peptide solution, EYPC/EYPG LUVs. The gist of the method: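 H+/Na+ transport is monitored through pyranine fluorescence in freshly extruded LUVs after a 30-min room-temperature vortex with each library peptide at a single concentration. Signals are normalized to detergent (Triton X-100) and untreated controls.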

We go through five compounds from article PMC7531004, “Discovery of gramicidin A analogues with altered activities by multidimensional screening of a one-bead-one-compound library” (Nature Communications, 2020).

Where a SMILES comes first, the peptide text is derived from it. [ ]: non-standard residue; d: D form. The star is where a group is joined. NHCH2CH2OH = OCCN*; For = O=C*

The viability is a per cent measure of how many cells are alive, often set against a control. Consider `CNC(=O)C[C@@H](NC(=O)[C@H](Cc1c[nH]c2ccccc12)NC(=O)[C@@H](CC(C)C)NC(=O)[C@H](Cc1c[nH]c2ccccc12)NC(=O)[C@@H](CC(C)C)NC(=O)[C@H](Cc1c[nH]c2ccccc12)NC(=O)[C@H](NC(=O)[C@@H](NC(=O)[C@H](NC(=O)[C@H](C)NC(=O)[C@H](NC(=O)[C@H](C)NC(=O)CNC(=O)[C@@H](NC=O)C(C)C)C(C)C)C(C)C)C(C)C)C(C)C)C(=O)N[C@@H](Cc1c[nH]c2ccccc12)C(=O)NCCO` [compound 7049] (For-VGA[dV]A[dV]V[dV]W[dL]W[dL]W[dD](NHMe)W-NHCH2CH2OH), for which, in data set [1], the antibacterial activity result is reported as “-”. The compound further yielded a viability in data set [2] of 100%. Besides, in data set [3], the “H+/Na+ transport activity normalized against the value of 1 (1.00)” value (shortened to “H+/Na+ transport activity normalized”) turned out to be 1.10.
In the same order, the values of `CC(C)C[C@@H](NC(=O)[C@@H](NC(=O)[C@H](NC(=O)[C@H](C)NC(=O)[C@H](NC(=O)[C@H](C)NC(=O)CNC(=O)[C@@H](NC=O)C(C)C)C(C)C)C(C)C)C(C)C)C(=O)N[C@@H](Cc1c[nH]c2ccccc12)C(=O)N[C@@H](C(=O)N[C@@H](Cc1c[nH]c2ccccc12)C(=O)N[C@@H](C(=O)N[C@@H](Cc1c[nH]c2ccccc12)C(=O)N[C@@H](C(=O)N[C@@H](Cc1c[nH]c2ccccc12)C(=O)NCCO)[C@H](C)O)C(C)C)C(C)C` [compound 7050] (For-VGA[dV]A[dV]V[dL]W[dV]W[dV]W[dT]W-NHCH2CH2OH) are “-”, 100% and 1.21.
Turning to `CC(C)C[C@@H](NC(=O)[C@H](Cc1c[nH]c2ccccc12)NC(=O)[C@H](NC(=O)[C@H](Cc1c[nH]c2ccccc12)NC(=O)[C@H](NC(=O)[C@@H](NC(=O)[C@H](NC(=O)[C@H](C)NC(=O)[C@H](NC(=O)[C@H](C)NC(=O)CNC(=O)[C@@H](NC=O)C(C)C)C(C)C)[C@H](C)O)C(C)C)C(C)C)C(C)C)C(=O)N[C@@H](Cc1c[nH]c2ccccc12)C(=O)N[C@@H](C(=O)N[C@@H](Cc1c[nH]c2ccccc12)C(=O)NCCO)C(C)C` [compound 7061] (For-VGA[dV]A[dT]V[dV]W[dV]W[dL]W[dV]W-NHCH2CH2OH), the antibacterial activity entry in data set [1] is given as “-”. The same compound came in with a viability in data set [2] of 100%. Besides, the “H+/Na+ transport activity normalized” value in data set [3] turned out to be 1.01.
Regarding `CNC(=O)C[C@@H](NC(=O)[C@H](C)NC(=O)[C@@H](CC(C)C)NC(=O)[C@H](C)NC(=O)CNC(=O)[C@@H](NC=O)C(C)C)C(=O)N[C@H](C(=O)N[C@H](CC(C)C)C(=O)N[C@@H](Cc1c[nH]c2ccccc12)C(=O)N[C@H](CC(C)C)C(=O)N[C@@H](Cc1c[nH]c2ccccc12)C(=O)N[C@@H](C(=O)N[C@@H](Cc1c[nH]c2ccccc12)C(=O)N[C@@H](C(=O)N[C@@H](Cc1c[nH]c2ccccc12)C(=O)NCCO)C(C)C)C(C)C)C(C)C` [compound 7119] (For-VGA[dL]A[dD](NHMe)V[dL]W[dL]W[dV]W[dV]W-NHCH2CH2OH), the antibacterial activity entry in data set [1] is “-”. In data set [2], this compound returned a viability of 100%. The “H+/Na+ transport activity normalized” value in data set [3] is 1.15.
On to `CC(C)C[C@@H](NC(=O)[C@H](C)NC(=O)CNC(=O)[C@@H](NC=O)C(C)C)C(=O)N[C@@H](C)C(=O)N[C@H](CC(C)C)C(=O)N[C@H](C(=O)N[C@H](CC(C)C)C(=O)N[C@@H](Cc1c[nH]c2ccccc12)C(=O)N[C@H](CC(C)C)C(=O)N[C@@H](Cc1c[nH]c2ccccc12)C(=O)N[C@@H](C(=O)N[C@@H](Cc1c[nH]c2ccccc12)C(=O)N[C@@H](C(=O)N[C@@H](Cc1c[nH]c2ccccc12)C(=O)NCCO)[C@H](C)O)[C@H](C)O)C(C)C` [compound 7156] (For-VGA[dL]A[dL]V[dL]W[dL]W[dT]W[dT]W-NHCH2CH2OH), for which the antibacterial activity entry in data set [1] is “-”. In addition, the viability in data set [2] came out at 100%. Besides, the “H+/Na+ transport activity normalized” value in data set [3] is listed as 1.08.
